Results: patent US4175081A, “5-Substituted thiadiazole ureas” (priority 1977, dated 1979)

Assays:
[1] = system: Corn (CN); test: Pre-emergence herbicide test; type: in vivo; conditions: Zea mays, 336 h, two weeks after treatment; for pest or weed control at 560.425 g/ha: 0.5 lb/acre; for pest or weed control at 1120.85 g/ha: 1 lb/acre; for pest or weed control at 2241.7 g/ha: 2 lb/acre; for pest or weed control at 4483.4 g/ha: 4 lb/acre
Outline: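 Four corn seeds per pot, sown at seed-diameter depth one day before spraying, got soil surface treatment at 8 lbs/acre (4 lbs/acre formulations also prepared) in 38 gallons/acre. Pots were greenhouse-held with sub-irrigation only. Injury or control was scored visually two weeks after treatment.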

[2] = system: Bean (BN); test: Pre-emergence herbicide test; type: in vivo, Phaseolus vulgaris var. Black Valentine; conditions: Phaseolus vulgaris, 336 h, two weeks after treatment; for pest or weed control at 560.425 g/ha: 0.5 lb/acre; for pest or weed control at 1120.85 g/ha: 1 lb/acre; for pest or weed control at 2241.7 g/ha: 2 lb/acre; for pest or weed control at 4483.4 g/ha: 4 lb/acre
Outline: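 Black Valentine bean was seeded in potting soil one day before spraying. Compound was applied pre-emergence at 8 lbs/acre (also 4 lbs/acre) in 38 gallons per acre. Plants were sub-irrigated and injury or control was rated visually after two weeks.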

[3] = system: Turnip (TP); test: Pre-emergence herbicide test; type: in vivo, Brassica sp.; conditions: Brassica rapa, pre-emergence, 336 h, two weeks after treatment; for pest or weed control at 560.425 g/ha: 0.5 lb/acre; for pest or weed control at 1120.85 g/ha: 1 lb/acre; for pest or weed control at 2241.7 g/ha: 2 lb/acre; for pest or weed control at 4483.4 g/ha: 4 lb/acre
Outline: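 Turnip (Brassica sp.) seeds were surface sown in 3' plastic pots of potting soil, covered with a thin layer of screened soil, and sub-irrigated in greenhouse trays. Pots were seeded one day ahead of treatment, sprayed pre-emergence under a hood with a fixed nozzle and moving belt, then kept in the greenhouse.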

[4] = system: Cotton (CT); test: Pre-emergence herbicide test; type: in vivo, Gossypium hirsutum var. DPL smooth leaf; conditions: Gossypium hirsutum, 336 h, two weeks after treatment; for pest or weed control at 560.425 g/ha: 0.5 lb/acre; for pest or weed control at 1120.85 g/ha: 1 lb/acre; for pest or weed control at 2241.7 g/ha: 2 lb/acre; for pest or weed control at 4483.4 g/ha: 4 lb/acre
Outline: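 Crop and weed species seeded one day before treatment, then sprayed pre-emergence at 8 lbs actual compound per acre (also 4 lbs/acre formulations) in 38 gallons per acre. Pots kept in greenhouse with sub-irrigation only; injury or control visually rated two weeks after treatment.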

[5] = system: Cotton (CT); test: Post-emergence herbicide test; type: in vivo, Gossypium hirsutum var. DPL smooth leaf; conditions: Gossypium hirsutum, post-emergence, 336 h, two weeks after treatment; for pest or weed control at 560.425 g/ha: 0.5 lb/acre; for pest or weed control at 1120.85 g/ha: 1 lb/acre; for pest or weed control at 2241.7 g/ha: 2 lb/acre; for pest or weed control at 4483.4 g/ha: 4 lb/acre
Outline: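 Cotton (Gossypium hirsutum var. DPL smooth leaf) was grown in 3' plastic pots of potting soil, four seeds per pot, planted at a depth equal to the seed diameter and watered by sub-irrigation. At the stage of expanded cotyledons with the first true leaf 1' long, plants were sprayed post-emergence in a hood with a fixed nozzle over a moving belt. Percent control was rated visually two weeks later.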

[6] = system: Barnyard grass (BG); test: Pre-emergence herbicide test; type: in vivo; conditions: Echinochloa crus-galli, 336 h, two weeks after treatment; for pest or weed control at 560.425 g/ha: 0.5 lb/acre; for pest or weed control at 1120.85 g/ha: 1 lb/acre; for pest or weed control at 2241.7 g/ha: 2 lb/acre; for pest or weed control at 4483.4 g/ha: 4 lb/acre
Outline: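 Barnyard grass surface-seeded in potting soil and sprayed pre-emergence one day after seeding, at 8 or 4 lb compound/acre in 38 gal/acre spray volume. Pots kept in greenhouse with sub-irrigation only; injury or control rated visually two weeks after treatment.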

[7] = system: Turnip (TP); test: Post-emergence herbicide test; type: in vivo, Brassica sp.; conditions: Brassica rapa, post-emergence, 336 h, two weeks after treatment; for pest or weed control at 560.425 g/ha: 0.5 lb/acre; for pest or weed control at 1120.85 g/ha: 1 lb/acre; for pest or weed control at 2241.7 g/ha: 2 lb/acre; for pest or weed control at 4483.4 g/ha: 4 lb/acre
Outline: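 A greenhouse post-emergence herbicide test on turnip. Seeds were sown on the surface of potting soil in 3' plastic pots, lightly covered with screened soil and watered from below. Planting was timed so seedlings had 1 or 2 true leaves above the cotyledons at spraying, done in a hood with a fixed nozzle. Control or injury was scored by eye after two weeks.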

[8] = system: Crabgrass (CG); test: Post-emergence herbicide test; type: in vivo, Digitaria sanquinalis; conditions: Digitaria sanguinalis, post-emergence, 336 h, two weeks after treatment; for pest or weed control at 560.425 g/ha: 0.5 lb/acre; for pest or weed control at 1120.85 g/ha: 1 lb/acre; for pest or weed control: 2 lb/acre; for pest or weed control at 4483.4 g/ha: 4 lb/acre
Outline: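 Crabgrass (Digitaria sanquinalis) was surface seeded individually in 3' plastic pots of potting soil, covered with screened soil, and watered by sub-irrigation in greenhouse trays. Planting was staggered so seedlings reached the target stage together. Post-emergence sprays were applied in a hood with a removable belt and fixed nozzle, and control was visually rated two weeks after treatment.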

[9] = system: Johnson grass (JG); test: Pre-emergence herbicide test; type: in vivo, Sorgum helepense; conditions: Sorghum halepense, 336 h, two weeks after treatment; for pest or weed control at 560.425 g/ha: 0.5 lb/acre; for pest or weed control at 1120.85 g/ha: 1 lb/acre; for pest or weed control at 2241.7 g/ha: 2 lb/acre; for pest or weed control at 4483.4 g/ha: 4 lb/acre
Outline: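 Pots seeded one day before spraying; compound applied pre-emergence at 8 lbs/acre (or 4 lbs/acre) in 38 gallons/acre spray volume. Sub-irrigated in greenhouse; injury/control rated visually two weeks after treatment.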

[10] = system: Bean (BN); test: Post-emergence herbicide test; type: in vivo, Phaseolus vulgaris var. Black Valentine; conditions: Phaseolus vulgaris, post-emergence, 336 h, two weeks after treatment; for pest or weed control at 560.425 g/ha: 0.5 lb/acre; for pest or weed control at 1120.85 g/ha: 1 lb/acre; for pest or weed control at 2241.7 g/ha: 2 lb/acre; for pest or weed control at 4483.4 g/ha: 4 lb/acre
Outline: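 Snapbean (Phaseolus vulgaris var. Black Valentine) was tested post-emergence. Four seeds were sown in 3' plastic pots of potting soil at a depth equal to the seed diameter, then sub-irrigated in greenhouse trays. Planting dates were staggered so plants were sprayed once primary leaves had expanded, with the growing point at the primary leaf nodes.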

[11] = system: Amaranth pigweed (PW); test: Pre-emergence herbicide test; type: in vivo, Amaranthus retroflexus; conditions: 336 h, two weeks after treatment; for pest or weed control at 560.425 g/ha: 0.5 lb/acre; for pest or weed control at 1120.85 g/ha: 1 lb/acre; for pest or weed control at 2241.7 g/ha: 2 lb/acre; for pest or weed control at 4483.4 g/ha: 4 lb/acre
Description: All crop and weed species were planted individually in 3' plastic pots containing potting soil. Four seeds each of corn, cotton, and snapbeans were seeded to a depth equal to the diameter of the seed. All other species were surface seeded and sprinkled with screened soil in an amount sufficient to cover the seed. Immediately after planting, all pots were watered by sub-irrigation in greenhouse trays. Pots for the pre-emergence phase were seeded one day before treatment.
Compounds were tested at rates of application equivalent to 8 lbs. of actual compound per acre in a spray volume of 38 gallons per acre. Spray hood constants required to deliver the above volume are as follows:
Formulations for spray applications were prepared in 50 ml volumes with the following three components:
Formulations for the 4 lbs/acre rate were prepared by adjusting the amount of active ingredient accordingly.
Spray applications were made in a hood containing a removable belt and fixed spray nozzle. For passage through the spray hood, one pot of each specie (pre-emergence phase) was placed on the rear half of the flat. Treatments were removed to the greenhouse after spraying. Watering during the observation period was done only by sub-irrigation.
Two weeks after treatment, pre- and post-emergence injury or control was visually rated, and the results were as shown in the following tables. Pre-emergence data are provided in TABLE III and post-emergence data are provided in TABLE IV, for compounds having the formula illustrated in TABLE I. Correspondingly, pre-emergence and post-emergence data, respectively, are set forth in TABLES V AND VI, for compounds having the formula illustrated in TABLE II.

[12] = system: Crabgrass (CG); test: Pre-emergence herbicide test; type: in vivo, Digitaria sanquinalis; conditions: Digitaria sanguinalis, pre-emergence, 336 h, two weeks after treatment; for pest or weed control at 560.425 g/ha: 0.5 lb/acre; for pest or weed control at 1120.85 g/ha: 1 lb/acre; for pest or weed control at 2241.7 g/ha: 2 lb/acre; for pest or weed control at 4483.4 g/ha: 4 lb/acre
Outline: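 Crabgrass (Digitaria sanquinalis) was surface seeded in 3' plastic pots of potting soil, covered with screened soil, and watered by sub-irrigation in greenhouse trays. Pots were seeded one day before spraying in a hood with a moving belt and fixed nozzle. Plants stayed in the greenhouse on sub-irrigation, and pre-emergence control was rated visually two weeks after treatment.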

CCCCSc1nnc(N(C)C(=O)NC)s1 [Example 90]
70%: pest or weed control at 4483.4 g/ha [2]
40%: pest or weed control at 2241.7 g/ha [2]
30%: pest or weed control at 4483.4 g/ha [1] | pest or weed control at 2241.7 g/ha [4] | pest or weed control at 560.425 g/ha [8] | pest or weed control at 1120.85 g/ha [11]
60%: pest or weed control at 2241.7 g/ha [3] | pest or weed control at 1120.85 g/ha [8]
80%: pest or weed control at 4483.4 g/ha [3]
10%: pest or weed control at 560.425 g/ha [1] | pest or weed control at 1120.85 g/ha [1] | pest or weed control at 2241.7 g/ha [1] | pest or weed control at 560.425 g/ha [2] | pest or weed control at 1120.85 g/ha [2] | pest or weed control at 560.425 g/ha [3] | pest or weed control at 1120.85 g/ha [3] | pest or weed control at 560.425 g/ha [4] | pest or weed control at 1120.85 g/ha [4] | pest or weed control at 560.425 g/ha [6] | pest or weed control at 1120.85 g/ha [6] | pest or weed control at 560.425 g/ha [9] | pest or weed control at 1120.85 g/ha [9] | pest or weed control at 560.425 g/ha [11] | pest or weed control at 560.425 g/ha [12] | pest or weed control at 1120.85 g/ha [12]
90%: pest or weed control at 2241.7 g/ha [6] | pest or weed control at 4483.4 g/ha [6] | pest or weed control at 560.425 g/ha [7] | pest or weed control [8] | pest or weed control at 4483.4 g/ha [8] | pest or weed control at 560.425 g/ha [10] | pest or weed control at 2241.7 g/ha [12] | pest or weed control at 4483.4 g/ha [12]
100%: pest or weed control at 560.425 g/ha [5] | pest or weed control at 1120.85 g/ha [5] | pest or weed control at 2241.7 g/ha [5] | pest or weed control at 4483.4 g/ha [5] | pest or weed control at 1120.85 g/ha [7] | pest or weed control at 2241.7 g/ha [7] | pest or weed control at 4483.4 g/ha [7] | pest or weed control at 1120.85 g/ha [10] | pest or weed control at 2241.7 g/ha [10] | pest or weed control at 4483.4 g/ha [10] | pest or weed control at 2241.7 g/ha [11] | pest or weed control at 4483.4 g/ha [11]
50%: pest or weed control at 4483.4 g/ha [4] | pest or weed control at 2241.7 g/ha [9] | pest or weed control at 4483.4 g/ha [9]

CCS(=O)(=O)c1nnc(N(C)C(=O)NC)s1 [Example 91]
70%: pest or weed control at 1120.85 g/ha [2] | pest or weed control at 2241.7 g/ha [2] | pest or weed control [8]
100%: pest or weed control at 4483.4 g/ha [2] | pest or weed control at 4483.4 g/ha [3] | pest or weed control at 560.425 g/ha [5] | pest or weed control at 1120.85 g/ha [5] | pest or weed control at 2241.7 g/ha [5] | pest or weed control at 4483.4 g/ha [5] | pest or weed control at 4483.4 g/ha [6] | pest or weed control at 560.425 g/ha [7] | pest or weed control at 1120.85 g/ha [7] | pest or weed control at 2241.7 g/ha [7] | pest or weed control at 4483.4 g/ha [7] | pest or weed control at 4483.4 g/ha [8] | pest or weed control at 4483.4 g/ha [9] | pest or weed control at 560.425 g/ha [10] | pest or weed control at 1120.85 g/ha [10] | pest or weed control at 2241.7 g/ha [10] | pest or weed control at 4483.4 g/ha [10] | pest or weed control at 2241.7 g/ha [11] | pest or weed control at 4483.4 g/ha [11] | pest or weed control at 4483.4 g/ha [12]
60%: pest or weed control at 4483.4 g/ha [1] | pest or weed control at 560.425 g/ha [3] | pest or weed control at 1120.85 g/ha [3] | pest or weed control at 1120.85 g/ha [6] | pest or weed control at 1120.85 g/ha [8] | pest or weed control at 2241.7 g/ha [9]
50%: pest or weed control at 1120.85 g/ha [1] | pest or weed control at 2241.7 g/ha [1] | pest or weed control at 1120.85 g/ha [4] | pest or weed control at 2241.7 g/ha [4] | pest or weed control at 560.425 g/ha [9] | pest or weed control at 1120.85 g/ha [9]
30%: pest or weed control at 560.425 g/ha [4] | pest or weed control at 560.425 g/ha [6]
40%: pest or weed control at 560.425 g/ha [8] | pest or weed control at 560.425 g/ha [11]
10%: pest or weed control at 560.425 g/ha [1] | pest or weed control at 560.425 g/ha [2]
80%: pest or weed control at 560.425 g/ha [12]
90%: pest or weed control at 2241.7 g/ha [3] | pest or weed control at 4483.4 g/ha [4] | pest or weed control at 2241.7 g/ha [6] | pest or weed control at 1120.85 g/ha [11] | pest or weed control at 1120.85 g/ha [12] | pest or weed control at 2241.7 g/ha [12]
